Source: ChEMBL document CHEMBL1201862, “PubChem BioAssay data set” (2004)
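Tested at 5 concentrations; 48 h exposure; 96-well plates; endpoints linearly interpolated, else capped at highest concentration. The concentration for 50% growth inhibition is given as GI50.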 Active and inactive are the calls of the source. Cut-off read from the data, not from the text of the source: active = GI50 up to about 1.1 µM and inactive = higher.

Assays:
Assay in all cases: NCI tumour cell line growth inhibition, 48 h
[1] = tested on: DMS-273
[2] = tested on: LOX IMVI
[3] = tested on: OVCAR-4
[4] = tested on: OVCAR-8
[5] = tested on: SNB-75
[6] = tested on: SW-620
[7] = tested on: K562
[8] = tested on: A549
[9] = tested on: IGROV-1
[10] = tested on: NCI-H23
[11] = tested on: COLO 205
[12] = tested on: UO-31
[13] = tested on: SK-MEL-2
[14] = tested on: SK-MEL-5
[15] = tested on: M14
[16] = tested on: CAKI-1
[17] = tested on: 786-0
[18] = tested on: HL-60
[19] = tested on: EKVX
[20] = tested on: NCI/ADR-RES

Measured: GI50

CCOC(=O)[C@H]1Nc2c(cccc2[N+](=O)[O-])C2c3ccccc3CC21 (stereo partly drawn)
inactive: [1] > 100 µM | [2] > 100 µM | [3] 36.9 µM | [4] > 100 µM | [5] > 100 µM | [6] > 100 µM | [7] > 100 µM | [8] > 100 µM | [9] > 100 µM | [10] > 100 µM | [11] > 100 µM | [12] > 100 µM | [13] > 100 µM | [14] > 100 µM | [15] > 100 µM | [16] > 100 µM

Nc1nc(SCCC/C=C/I)nc2c1ncn2C1OC(CO)C(O)C1O (stereo not drawn)
inactive: [1] > 202 µM | [2] > 202 µM | [3] > 202 µM | [17] > 202 µM | [4] > 202 µM | [5] 78.9 µM | [6] > 202 µM | [7] > 202 µM | [8] > 202 µM | [9] > 202 µM | [10] > 202 µM | [11] > 202 µM | [12] > 202 µM | [13] > 202 µM | [14] > 202 µM | [15] > 202 µM | [16] > 202 µM | [18] > 202 µM

CS(=O)(=O)OCC1=C(COS(C)(=O)=O)C(=O)c2c(O)ccc(O)c2C1=O
inactive: [1] > 100 µM | [3] > 100 µM | [4] > 100 µM | [5] > 100 µM | [6] > 100 µM | [7] > 100 µM | [8] > 100 µM | [9] > 100 µM | [10] > 100 µM | [11] > 100 µM | [12] > 100 µM | [13] > 100 µM | [19] > 100 µM | [14] > 100 µM | [15] > 100 µM | [16] > 100 µM | [18] > 100 µM

C#Cc1c(C)c(/C=C/C(C)=C\C(=O)OC)n(C)c1C
inactive: [1] > 100 µM | [2] > 100 µM | [3] 75.9 µM | [17] 55.1 µM | [4] 70.1 µM | [6] > 100 µM | [7] 8.97 µM | [8] > 100 µM | [9] > 100 µM | [10] > 100 µM | [11] 61.2 µM | [12] 63.4 µM | [19] > 100 µM | [15] > 100 µM | [16] > 100 µM | [18] 6.65 µM

O=C1C2=C(c3ccccc31)C(c1ccc(Cl)cc1)NC(S)=N2 (stereo not drawn)
inactive: [1] 20.3 µM | [3] 15.5 µM | [17] 17.9 µM | [4] 20 µM | [5] 15.9 µM | [6] 20.5 µM | [7] 19 µM | [8] 19.4 µM | [9] 19 µM | [10] 17.3 µM | [11] 25.5 µM | [12] 14.9 µM | [13] 23.3 µM | [19] 36.9 µM | [14] 33.5 µM | [15] 23.3 µM | [16] 28.4 µM | [18] 17.5 µM

COC1=CC(=O)c2ccccc2C1(C)C1=NC(C)(C)CO1 (stereo not drawn)
inactive: [1] > 100 µM | [3] > 100 µM | [17] > 100 µM | [4] > 100 µM | [5] > 100 µM | [6] > 100 µM | [7] > 100 µM | [8] > 100 µM | [9] > 100 µM | [10] > 100 µM | [11] > 100 µM | [12] > 100 µM | [13] > 100 µM | [19] > 100 µM | [14] > 100 µM | [15] > 100 µM | [16] > 100 µM | [18] > 100 µM

CCCCCC1CC(C(C)=O)CN1c1ccc(F)cc1 (stereo not drawn)
inactive: [1] 35.6 µM | [2] 28 µM | [4] 32.3 µM | [5] 25.5 µM | [6] 29.7 µM | [8] 51.4 µM | [10] 24.8 µM | [11] 48.1 µM | [12] 37.4 µM | [13] 38.9 µM | [19] 50.6 µM | [14] 19.8 µM | [15] 35 µM | [18] > 10 µM

COc1ccc(/C=N/NC(=O)NCCCN(C)C)cc1
inactive: [1] > 100 µM | [2] 85.9 µM | [4] > 100 µM | [6] > 100 µM | [7] > 100 µM | [8] > 100 µM | [9] > 100 µM | [10] > 100 µM | [12] > 100 µM | [13] > 100 µM | [14] > 100 µM | [18] > 100 µM

COc1cc(Nc2nc3ccc(C(F)(F)F)cc3nc2C(=O)O)cc(OC)c1OC
inactive: [2] 19.1 µM | [3] 15.1 µM | [17] 27.8 µM | [4] 27.7 µM | [5] 46 µM | [6] 25.7 µM | [7] 17.9 µM | [8] 33.3 µM | [20] 21.3 µM | [9] 25.6 µM | [10] 27.8 µM | [11] 19.8 µM | [12] 19.7 µM | [13] 21.8 µM | [19] 34.9 µM | [14] 34.4 µM | [15] 30 µM | [16] 24.8 µM | [18] 31.3 µM
